# From publication PMC4226840, “An open-label study to determine the maximum tolerated dose of the multitargeted tyrosine kinase inhibitor CEP-11981 in patients with advanced cancer” (Investigational New Drugs, 2014)
# Experiments:
# Aurora A = tested on: Aurora A; design: method as in PMID 22148921; conditions: cited from earlier work
# VEGFR-2 = tested on: VEGFR-2; design: method as in PMID 22148921; conditions: in vitro; cited from earlier work
# proto-oncogene c-SRC = tested on: proto-oncogene c-SRC; design: method as in PMID 22148921; conditions: cited from earlier work
# VEGFR-2/KDR = assay: Ex vivo bioassay of cellular VEGFR-2/KDR kinase inhibition with patient plasma in TrkA-VEGFR-2/KDR chimeric PAE cells; format: cell-based
# Sequence of VEGFR-2/KDR (P35968 786-1356 limits assumed): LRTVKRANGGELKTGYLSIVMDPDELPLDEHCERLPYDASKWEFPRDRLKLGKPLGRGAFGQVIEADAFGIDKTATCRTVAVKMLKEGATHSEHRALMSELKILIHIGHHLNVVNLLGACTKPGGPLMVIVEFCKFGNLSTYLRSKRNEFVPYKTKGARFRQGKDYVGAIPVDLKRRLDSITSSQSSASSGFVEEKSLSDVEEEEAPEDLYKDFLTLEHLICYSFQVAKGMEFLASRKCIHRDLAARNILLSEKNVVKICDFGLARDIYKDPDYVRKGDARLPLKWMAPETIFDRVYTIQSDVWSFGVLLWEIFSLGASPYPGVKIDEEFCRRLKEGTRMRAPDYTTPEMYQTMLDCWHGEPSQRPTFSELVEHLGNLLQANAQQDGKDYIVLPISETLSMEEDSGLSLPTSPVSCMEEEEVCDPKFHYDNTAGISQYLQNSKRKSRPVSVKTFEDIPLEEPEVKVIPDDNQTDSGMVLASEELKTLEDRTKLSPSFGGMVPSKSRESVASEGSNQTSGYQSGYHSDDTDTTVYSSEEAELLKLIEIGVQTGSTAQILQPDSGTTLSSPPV
# Experimental: Pharmacokinetic parameters calculated after a single dose of CEP-11981 included area under the plasma drug concentration versus time curve (AUC) from zero to infinity (AUC0-∞), to the last measurable concentration (AUC0-t), and to 24 h (AUC0–24); maximum observed plasma drug concentration (Cmax); time to maximum observed plasma drug concentration (Tmax); terminal elimination half-life (t½); and predicted accumulation ratio (Rpred), which was defined as AUC0–∞ (day 1, cycle 1)/AUC0–24 (day 1, cycle 1). Pharmacokinetic parameters calculated after multiple doses included AUC0-t, Cmax, Tmax, and t½, and observed accumulation ratio (Robs). Robs was defined as AUC for 1 dosing interval following multiple doses (AUCτ; day 15, cycle 1)/AUC0–24 (day 1, cycle 1). […] Pharmacodynamics was assessed by VEGFR-2/KDR inhibitory activity in response to CEP-11981 treatment.
# The venous blood samples for pharmacokinetic analysis were collected on days 1 and 15 of dosing during cycle 1 immediately before dose administration and at 0.5, 1, 1.5, 2, 3, 4, 6, 8, 12 (this sample was optional and could be collected from 10 to 14 h), and 24 h postdose, as well as on days 8, 22, 29, and 43. The venous blood samples for pharmacokinetic-pharmacodynamic analysis were collected on days 1 and 15 of dosing during cycle 1 immediately before dose administration and at 1 h postdose, and on day 43. At each draw, 2 samples were obtained in 6-mL sodium heparinized vacutainers. Plasma was obtained and stored at −70 °C until shipment to the sponsor for analysis.
# A bioassay with engineered chimeric porcine aortic endothelial (PAE) cell lines stably expressing a TrkA-VEGFR-2/KDR domain was used to evaluate human plasma-associated shifts in cellular IC50 for CEP-11981 inhibition of ligand-stimulated VEGFR-2/KDR phosphorylation. Plasma samples for the bioassay were obtained 1 h postdose and on days 1 and 15; they were collected from patients across cohorts.
# [1] = Plasma pharmacokinetics in patients, single and multiple doses; format: in vivo, human; conditions: for Mean (SD) Robs (observed accumulation ratio): multiple doses, AUCτ day 15/AUC0–24 day 1; for Mean (SD) Rpred (predicted accumulation ratio): AUC0–∞/AUC0–24 day 1
# Experimental: Pharmacokinetic parameters calculated after multiple doses included AUC0-t, Cmax, Tmax, and t½, and observed accumulation ratio (Robs). […] Pharmacodynamics was assessed by VEGFR-2/KDR inhibitory activity in response to CEP-11981 treatment. […] The venous blood samples for pharmacokinetic-pharmacodynamic analysis were collected on days 1 and 15 of dosing during cycle 1 immediately before dose administration and at 1 h postdose, and on day 43. At each draw, 2 samples were obtained in 6-mL sodium heparinized vacutainers. Plasma was obtained and stored at −70 °C until shipment to the sponsor for analysis.
# [2] = multiple doses (day 15, cycle 1), oral once daily, 3.0 mg/m^2, n = 3
# [3] = multiple doses (day 15, cycle 1), oral once daily, 4.2 mg/m^2, n = 3
# [4] = multiple doses (day 15, cycle 1), oral once daily, 5.9 mg/m^2, n = 5
# [5] = multiple doses (day 15, cycle 1), oral once daily, 11.8 mg/m^2, n = 3
# [6] = multiple doses (day 15, cycle 1), oral once daily, 19.7 mg/m^2, n = 3
# [7] = multiple doses (day 15, cycle 1), oral once daily, 29.6 mg/m^2, n = 4
# [8] = multiple doses (day 15, cycle 1), oral once daily, 41.4 mg/m^2, n = 3
# [9] = multiple doses (day 15, cycle 1), oral once daily, 55.0 mg/m^2, n = 4
# [10] = multiple doses (day 15, cycle 1), oral once daily, 73.0 mg/m^2, n = 3
# [11] = multiple doses (day 15, cycle 1), oral once daily, 126.6 mg/m^2, n = 2
# [12] = single dose, oral, 3.0 mg/m^2, n = 3
# [13] = single dose, oral, 4.2 mg/m^2, n = 3
# [14] = single dose, oral, 5.9 mg/m^2, n = 5
# [15] = single dose, oral, 11.8 mg/m^2, n = 3
# [16] = single dose, oral, 19.7 mg/m^2, n = 3
# [17] = single dose, oral, 29.6 mg/m^2, n = 4
# [18] = single dose, oral, 41.4 mg/m^2, n = 3
# [19] = single dose, oral, 55.0 mg/m^2, n = 5
# [20] = single dose, oral, 73.0 mg/m^2, n = 3
# [21] = single dose, oral, 126.6 mg/m^2, n = 2
substance,measurement,setting,value
"11-(2-methylpropyl)-12,13-dihydro-2-methyl-8-(pyrimidin-2-ylamino)-4H-indazolo[5,4-a]pyrrolo[3,4-c]carbazol-4-one [CEP-11981]",IC50,Aurora A,42 nM
same,IC50,VEGFR-2,4 nM
same,IC50,proto-oncogene c-SRC,37 nM
same,Patients with quintile 5 ex vivo VEGFR-2/KDR inhibition,VEGFR-2/KDR; 97.4 mg/m^2,3 of 5
same,Patients with quintile 5 ex vivo VEGFR-2/KDR inhibition,VEGFR-2/KDR; 126.6 mg/m^2,1 of 1
same,Inhibition of VEGFR-2/KDR kinase,"VEGFR-2/KDR; plasma from lower dose cohorts (3.0, 4.2, 5.9, 11.8, and 19.7 mg/m^2), normalized to predose baseline",Less than 50%
same,Normalized mean cellular VEGFR-2/KDR inhibition,"VEGFR-2/KDR; plasma primarily from 73.0, 97.4, and 126.6 mg/m^2 cohorts (quintile 5)",≥ 81%
same,Mean (SD) AUC0-24,"[1]; human, in vivo, po, 97.4 mg/m2","5,320.4 (1,459.11) ng•hr/mL"
same,Mean (SD) Cmax,"[1]; human, in vivo, po, 97.4 mg/m2",526.4 (185.68) ng/mL
same,Mean (SD) t½,"[1]; human, in vivo, po, 97.4 mg/m2",10.3 (4.59) hr
same,Median (range) Tmax,"[1]; human, in vivo, po, 97.4 mg/m2",4.0 (2.0–6.0) hr
same,Mean (SD) AUCτ,[1]; [2],165.3 (82.98) ng•hr/mL
same,Mean (SD) Cmax,[1]; [2],16.1 (2.35) ng/mL
same,Mean (SD) t½,[1]; [2],8.0 (2.92) hr
same,Median (range) Tmax,[1]; [2],2.9 (1.5–4.0) hr
same,Mean (SD) AUCτ,[1]; [3],201.7 (46.72) ng•hr/mL
same,Mean (SD) Cmax,[1]; [3],24.3 (9.23) ng/mL
same,Mean (SD) t½,[1]; [3],9.9 (4.55) hr
same,Median (range) Tmax,[1]; [3],3.9 (1.5–4.0) hr
same,Mean (SD) AUCτ,[1]; [4],278.0 (69.45) ng•hr/mL
same,Mean (SD) Cmax,[1]; [4],32.4 (8.40) ng/mL
same,Mean (SD) t½,[1]; [4],6.6 (1.51) hr
same,Median (range) Tmax,[1]; [4],3.0 (1.3–6.0) hr
same,Mean (SD) AUCτ,[1]; [5],763.7 (128.14) ng•hr/mL
same,Mean (SD) Cmax,[1]; [5],98.1 (5.64) ng/mL
same,Mean (SD) t½,[1]; [5],12.3 (9.70) hr
same,Median (range) Tmax,[1]; [5],2.0 (1.6–2.1) hr
same,Mean (SD) AUCτ,[1]; [6],"1,102.3 (734.79) ng•hr/mL"
same,Mean (SD) Cmax,[1]; [6],128.5 (98.34) ng/mL
same,Mean (SD) t½,[1]; [6],5.4 (1.20) hr
same,Median (range) Tmax,[1]; [6],4.0 (1.5–4.0) hr
same,Mean (SD) AUCτ,[1]; [7],"2,923.5 (2,939.79) ng•hr/mL"
same,Mean (SD) Cmax,[1]; [7],218.8 (130.35) ng/mL
same,Mean (SD) t½,[1]; [7],8.7 (5.74) hr
same,Median (range) Tmax,[1]; [7],4.5 (2.0–8.0) hr
same,Mean (SD) AUCτ,[1]; [8],"3,256.0 (1,816.44) ng•hr/mL"
same,Mean (SD) Cmax,[1]; [8],412.6 (93.94) ng/mL
same,Mean (SD) t½,[1]; [8],10.3 (6.33) hr
same,Median (range) Tmax,[1]; [8],2.1 (1.7–3.1) hr
same,Mean (SD) AUCτ,[1]; [9],"4,313.3 (1,091.33) ng•hr/mL"
same,Mean (SD) Cmax,[1]; [9],320.7 (75.09) ng/mL
same,Mean (SD) t½,[1]; [9],12.8 (4.32) hr
same,Median (range) Tmax,[1]; [9],5.2 (3.0–8.0) hr
same,Mean (SD) AUCτ,[1]; [10],"9,429.0 (3,993.74) ng•hr/mL"
same,Mean (SD) Cmax,[1]; [10],713.0 (30.38) ng/mL
same,Mean (SD) t½,[1]; [10],13.9 (9.48) hr
same,Median (range) Tmax,[1]; [10],3.3 (3.1–3.5) hr
same,Mean (SD) AUCτ,[1]; [11],"23,565.0 (0) ng•hr/mL"
same,Mean (SD) Cmax,[1]; [11],"1,481.5 (0) ng/mL"
same,Mean (SD) t½,[1]; [11],14.7 (0) hr
same,Median (range) Tmax,[1]; [11],8.0 (8.0–8.0) hr
same,Mean (SD) Robs (observed accumulation ratio),"[1]; oral once daily, 3.0 mg/m^2, n = 3",1.3 (0.62)
same,Mean (SD) Robs (observed accumulation ratio),"[1]; oral once daily, 4.2 mg/m^2, n = 3",1.8 (0.64)
same,Mean (SD) Robs (observed accumulation ratio),"[1]; oral once daily, 5.9 mg/m^2, n = 5",1.5 (0.59)
same,Mean (SD) Robs (observed accumulation ratio),"[1]; oral once daily, 11.8 mg/m^2, n = 3",1.5 (0.15)
same,Mean (SD) Robs (observed accumulation ratio),"[1]; oral once daily, 19.7 mg/m^2, n = 3",1.2 (0.29)
same,Mean (SD) Robs (observed accumulation ratio),"[1]; oral once daily, 29.6 mg/m^2, n = 4",1.1 (1.24)
same,Mean (SD) Robs (observed accumulation ratio),"[1]; oral once daily, 41.4 mg/m^2, n = 3",1.3 (0.46)
same,Mean (SD) Robs (observed accumulation ratio),"[1]; oral once daily, 55.0 mg/m^2, n = 4",1.9 (0.19)
same,Mean (SD) Robs (observed accumulation ratio),"[1]; oral once daily, 73.0 mg/m^2, n = 3",1.9 (0.14)
same,Mean (SD) AUC0-24,[1]; [12],127.0 (16.09) ng•hr/mL
same,Mean (SD) Cmax,[1]; [12],13.7 (6.14) ng/mL
same,Mean (SD) t½,[1]; [12],8.0 (2.82) hr
same,Median (range) Tmax,[1]; [12],6.0 (2.0–6.1) hr
same,Mean (SD) Rpred (predicted accumulation ratio),[1]; [12],1.2 (0.15)
same,Mean (SD) AUC0-24,[1]; [13],119.3 (14.36) ng•hr/mL
same,Mean (SD) Cmax,[1]; [13],16.8 (4.88) ng/mL
same,Mean (SD) t½,[1]; [13],7.8 (3.69) hr
same,Median (range) Tmax,[1]; [13],4.0 (1.0–6.0) hr
same,Mean (SD) Rpred (predicted accumulation ratio),[1]; [13],1.2 (0.12)
same,Mean (SD) AUC0-24,[1]; [14],194.8 (66.56) ng•hr/mL
same,Mean (SD) Cmax,[1]; [14],26.0 (6.53) ng/mL
same,Mean (SD) t½,[1]; [14],5.9 (1.06) hr
same,Median (range) Tmax,[1]; [14],2.1 (1.5–4.0) hr
same,Mean (SD) Rpred (predicted accumulation ratio),[1]; [14],1.1 (0.05)
same,Mean (SD) AUC0-24,[1]; [15],516.7 (125.82) ng•hr/mL
same,Mean (SD) Cmax,[1]; [15],84.9 (23.01) ng/mL
same,Mean (SD) t½,[1]; [15],6.0 (3.66) hr
same,Median (range) Tmax,[1]; [15],1.6 (1.5–3.0) hr
same,Mean (SD) Rpred (predicted accumulation ratio),[1]; [15],1.1 (0.12)
same,Mean (SD) AUC0-24,[1]; [16],874.0 (357.79) ng•hr/mL
same,Mean (SD) Cmax,[1]; [16],135.7 (76.46) ng/mL
same,Mean (SD) t½,[1]; [16],5.1 (1.33) hr
same,Median (range) Tmax,[1]; [16],4.0 (1.0–4.3) hr
same,Mean (SD) Rpred (predicted accumulation ratio),[1]; [16],1.0 (0.06)
same,Mean (SD) AUC0-24,[1]; [17],"2,376.3 (2,064.06) ng•hr/mL"
same,Mean (SD) Cmax,[1]; [17],266.9 (181.95) ng/mL
same,Mean (SD) t½,[1]; [17],8.5 (5.48) hr
same,Median (range) Tmax,[1]; [17],2.3 (1.0–3.1) hr
same,Mean (SD) Rpred (predicted accumulation ratio),[1]; [17],1.2 (0.22)
same,Mean (SD) AUC0-24,[1]; [18],"2,820.3 (2,070.39) ng•hr/mL"
same,Mean (SD) Cmax,[1]; [18],351.9 (94.39) ng/mL
same,Mean (SD) t½,[1]; [18],8.1 (4.54) hr
same,Median (range) Tmax,[1]; [18],2.0 (1.0–4.0) hr
same,Mean (SD) Rpred (predicted accumulation ratio),[1]; [18],1.2 (0.21)
same,Mean (SD) AUC0-24,[1]; [19],"2,274.0 (666.44) ng•hr/mL"
same,Mean (SD) Cmax,[1]; [19],251.9 (119.68) ng/mL
same,Mean (SD) t½,[1]; [19],9.5 (2.57) hr
same,Median (range) Tmax,[1]; [19],3.0 (3.0–4.0) hr
same,Mean (SD) Rpred (predicted accumulation ratio),[1]; [19],1.2 (0.11)
same,Mean (SD) AUC0-24,[1]; [20],"3,938.7 (1,965.70) ng•hr/mL"
same,Mean (SD) Cmax,[1]; [20],444.2 (149.44) ng/mL
same,Mean (SD) t½,[1]; [20],8.1 (2.19) hr
same,Median (range) Tmax,[1]; [20],4.0 (3.0–4.1) hr
same,Mean (SD) Rpred (predicted accumulation ratio),[1]; [20],1.2 (0.10)
same,Mean (SD) AUC0-24,[1]; [21],"5,767.0 (0) ng•hr/mL"
same,Mean (SD) Cmax,[1]; [21],751.2 (41.49) ng/mL
same,Median (range) Tmax,[1]; [21],5.0 (2.0–8.0) hr
